Assay results taken from US6357163B1, “Use of nucleic acid analogues in diagnostics and analytical procedures” (priority 1991, dated 2002).
Where “and” joins values, the source holds several entries; their conditions need not be identical. Equal entries are not always repeated.

How the values were obtained:
5′-AAA-AGA-AGA-A = assay: Melting temperature (Tm) of hybrid with oligodeoxyribonucleotide; assay type: binding; conditions: oligo 7 (5′-AAA-AGA-AGA-A); 10 mM phosphate, 1 mM EDTA, 140 mM NaCl, pH 7.2
Source text: (§1) 2. Upon formation of DNA duplexes (dsDNA) from single strand DNA, the extinction coefficient decreases (hypochromicity). Thus, the denaturing of DNA can be followed by measuring changes in the absorbance, for example, as a function of […], the temperature where 50% of a duplex has disappeared to give single strands.
(§2) Duplexes were formed from the single-stranded oligodeoxyribonucleotides and the PNAs listed below. Typically 0.3 OD260 of the T-rich strand was hybridized with 1 equivalent of the other strand by heating to 90° C. for 5 min, cooling to room temperature and kept for 30 min and finally stored in a refrigerator at 5° C. for at least 30 min. The buffers used were all 10 mM in phosphate and 1 mM in EDTA. The low salt buffer contained no sodium chloride, whereas the medium salt buffer contained 140 mM NaCl and the high salt buffer 500 mM NaCl. The pH of all the buffers was 7.2. The melting temperature of the hybrids were determined on a Gilford Response apparatus. The following extinction coefficients were used A: 15.4 ml/μmol.cm; T: 8.8; G: 11.7 and C: 7.3 for both normal oligonucleotides and PNA. The melting curves were recorded in steps of 0.5 C/min. The Tm were determined from the maximum of the 1st derivative of the plot of A260 vs temperature.
7. 5′-AAA-AGA-AGA-A (See SEQ ID NO:13)

5′-AAG-AAG-AAA-A = assay: as above; assay type: binding; conditions: oligo 5 (5′-AAG-AAG-AAA-A); 10 mM phosphate, 1 mM EDTA, 140 mM NaCl, pH 7.2
Source text: as §1, §2
5. 5′-AAG-AAG-AAA-A (See SEQ ID NO:9)

(dA)10 = assay: as above; assay type: binding; conditions: for Tm, Medium Salt / Tm, High Salt / Tm, Low Salt: oligo 2 (5′-AAA-AAA-AAA-A), 10 mM phosphate, 1 mM EDTA, pH 7.2; for Tm, Medium Salt: 140 mM NaCl; for Tm, High Salt: 500 mM NaCl; for Tm, Low Salt: no sodium chloride; for Tm: DNA (dA)10
Source text: as §1, §2

(dA)5(dG)(dA)4 = assay: as above; assay type: binding; conditions: oligo 4 (5′-AAA-AAG-AAA-A), 10 mM phosphate, 1 mM EDTA, pH 7.2; for Tm, Medium Salt: 140 mM NaCl; for Tm, High Salt: 500 mM NaCl; for Tm, Low Salt: no sodium chloride
Source text: as §1, §2

[1] = test system: 32P-dsDNA (A10/T10) target, pT10 fragment; assay: Stability of PNA-dsDNA complexes; assay type: binding; conditions: PNA bound to A10/T10 dsDNA target; heated 10 min with competing GATCCA10G, S1 nuclease
Protocol: Complexes between PNA-Tn and ^32P-dsDNA (A10/T10) target were formed (60 min, 37° C.). The complexes were then incubated at the desired temperature in the presence of excess oligo-dA10 for 10 min, cooled to RT and probed with KMnO4.
A mixture of 200 cps ^32P-pT10 fragment (as in Example 65), 0.5 μg calf thymus DNA and 300 ng of the desired PNA (either T10-LysNH2, T8-LysNH2 or T6-LysNH2) was incubated in 100 μl 200 mM NaCl, 50 mM Na-acetate, pH 4.5, 1 mM ZnSO4 for 60 min at 37° C. A 2 μg portion of oligonucleotide GATCCA10G was added to compete with the PNA for the labelled oligonucleotide and each sample was heated for 10 min at the temperature indicated, cooled in ice for 10 min and warmed to 20° C. 50 U of S1 nuclease was added and the quantity of radio-activity liberated as single nucleotides was measured.

5′-AAA-AAA-AA = assay: Melting temperature (Tm) of hybrid with oligodeoxyribonucleotide; assay type: binding; conditions: oligo 1 (5′-AAA-AAA-AA), 10 mM phosphate, 1 mM EDTA, pH 7.2
Source text: as §1, §2
1. 5′-AAA-AAA-AA (See SEQ ID NO:12)

5′-AAA-AAA-AAA-AAA-AAA = assay: as above; assay type: binding; conditions: oligo 14 (5′-AAA-AAA-AAA-AAA-AAA); 10 mM phosphate, 1 mM EDTA, 140 mM NaCl, pH 7.2
Source text: as §1, §2
14. 5′-AAA-AAA-AAA-AAA-AAA (See SEQ ID NO:20)

[2] = test system: A9G (5′-TCGACAAAAAGAAAAG); assay: Binding of 5′-32P-endlabeled oligonucleotide to PNA-Sepharose; conditions: DNA A9G; PNA on solid support (CNBr-Sepharose); 16 hr at 20° C. in TE
[3] = test system: mix (5′-GATCACGCGTATACGCGT); assay: as above; conditions: DNA mix; PNA on solid support (CNBr-Sepharose); 16 hr at 20° C. in TE
[4] = test system: A8G2 (5′-GAAGAAGAAACTGAC); assay: as above; conditions: DNA A8G2; PNA on solid support (CNBr-Sepharose); 16 hr at 20° C. in TE
32P-end-labelled dA10 = assay: Binding to dA10, gel retardation (PAGE); conditions: for binding to the corresponding dA10: summary statement, illustrated by gel retardation and Tm
Protocol: (§3) 1. As shown in Example 56 below PNA-oligonucleotide complexes will migrate slower than the single stranded oligonucleotide upon electrophoresis in polyacrylamide gels. Consequently, such experiments were performed with Acr^1-(Taeg)10-Lys-NH2 and ^32P-end-labelled dA10.
The sample was cooled in ice (15 min) and analyzed by gel electrophoresis in polyacrylamide (PAGE). To 10 μl of the sample was added 2 μl 50% glycerol, 5μl TBE (TBE=90 mM Tris-borate, 1 mM EDTA, pH 8.3), and the sample was analysed by PAGE (15% acrylamide, 0.5% bisacrylamide) in TBE buffer at 4° C. A 10 μl portion of the sample was lyophilized and redissolved in 10 μl 80% formamide, 1 TBE, heated to 90° C. (5 min), and analyzed by urea/PAGE (15% acrylamide, 0.5% bisacrylamide, 7 M urea) in TBE. [^32P]-containing DNA bands were visualized by autoradiography using intensifying screens and Agfa Curix RPI X-ray films exposed at −80° C. for 2 h.
Oligonucleotides were synthesized on a Biosearch 7500 DNA synthesizer, labelled with γ[^32P]-ATP (Amersham, 5000 Ci/mmol) and polynucleotide kinase, and purified by PAGE using standard techniques (Maniatis et al. (1986): A laboratory manual, Cold Spring Harbor Laboratories).
(§4) In FIG. 11a and in FIG. 11b, the 5′-^32P-labelled oligonucleotide 1 is 5′-GATCCA10G. This was incubated in the absence (lanes 1 and 4) or presence of Acr-T10-Lys-NH2 (in lanes 2 and 5, 25 pmol; lanes 3 and 6, 75 pmol) and also in the absence (lanes 1 to 3) or presence (lanes 4 to 6) of “oligo-2” which was 5′-GATCCT10G. 5′-^32P-labelled oligo 2 was incubated in the absence (lane 7) or presence of the same PNA (lane 8, 25 pmol; lane 9, 75 pmol) and analysed by PAGE as described above in detail.
The results in FIG. 11a show retardation of the ssDNA as it is hybridised by PNA (lanes 1 to 3) and the ability of PNA to compete with a DNA oligonucleotide, for labelled complementary oligonucleotide (lanes 4 to 6). The intensity of the band attributable to dsDNA grows faster as the PNA concentration is raised and is replaced by a band representing the slower moving PNA-DNA hybride. […]

32P-end-labelled dT10 = assay: Gel retardation (PAGE), control experiment; assay type: binding; conditions: same conditions
Protocol: as §3, §4
The results in FIG. 11a show retardation of the ssDNA as it is hybridised by PNA (lanes 1 to 3) and the ability of PNA to compete with a DNA oligonucleotide, for labelled complementary oligonucleotide (lanes 4 to 6). The intensity of the band attributable to dsDNA grows faster as the PNA concentration is raised and is replaced by a band representing the slower moving PNA-DNA hybride.

RNA-A (poly rA) = assay: Melting of PNA-RNA hybrid; assay type: binding; conditions: hybrid with RNA-A (poly rA); cannot be measured
Protocol: (§5) The hybrid formed between RNA-A (poly rA) and PNA-T10-Lys-NH2 melts at such high temperature that it cannot be measured (>90 C). […] Thereafter the sample is heated to 90° C. for 5 min, cooled to room temperature and kept at this temperature for 30 minutes and finally stored at 5° C. for 30 min.

[5] = test system: A10 target in plasmid pA10KS / pT10KS, transcription by RNA polymerase; assay: Inhibition of transcription by PNA; assay type: biochemical
Protocol: RNA transcripts were visualized by autoradiography. The plasmid used was: Lane 1 to 5; pA10KS (the A10 target is positioned on the transcribed strand). Lane 6 to 10: pT10KS (the A10 target is positioned on the non-transcribed strand). The plasmid was treated with the following restriction enzymes prior to the experiment: Lanes 1, 4, 6 and 9: PyuII; lanes 2, 5, 7 and 10: Xha I; lanes 3 and 8: BamHI. […] If the PNA is bound to the non-transcribed strand of the plasmid, transcription is not arrested.

RNA-A = assay: Drop in A260 on mixing PNA with RNA; assay type: binding
Protocol: as §5

RNA-U = assay: Drop in A260 on mixing PNA with RNA; assay type: binding
Protocol: as §5

RNA-C = assay: Drop in A260 on mixing PNA with RNA; assay type: binding
Protocol: as §5

RNA-G = assay: Drop in A260 on mixing PNA with RNA; assay type: binding
Protocol: as §5

[6] = test system: A10 (5′-GATCCAAAAAAAAAAG); assay type: binding
[7] = A260 before mixing 0.600, heated to 90° C. for 5 min, cooled

Substance: Ac-TTT-TTT-TTT-T-Lys-NH2 [f]
- Tm, Medium Salt (5′-AAA-AGA-AGA-A): 43.5 °C
- Tm, Medium Salt (5′-AAG-AAG-AAA-A): 46.5 °C
- Tm, Medium Salt ((dA)10): 74 °C
- Tm, Medium Salt ((dA)5(dG)(dA)4): 62.0 °C

Substance: TTT-TTT-TT-Lys-NH2 [b]
- Tm of PNA/DNA complex [1]: 60 °C
- Tm, Medium Salt (5′-AAA-AAA-AA; 140 mM NaCl): 51.5 °C
- Tm, High Salt (5′-AAA-AAA-AA; 500 mM NaCl): 50.0 °C
- Tm, Low Salt (5′-AAA-AAA-AA; no sodium chloride): 56.0 °C

Substance: 5′-TTT-TTT-TTT-TTT-TTT [Oligo 13]
- Tm, Medium Salt (5′-AAA-AAA-AAA-AAA-AAA): 39.0 °C

Substance: TTT-TTC-TTT-T-Lys-NH2
- % Binding of 32P-oligo to PNA-Sepharose [2]: 50%
- % Binding of 32P-oligo to PNA-Sepharose [3]: 13%
- Tm, Medium Salt (5′-AAA-AGA-AGA-A): 58.0 °C
- % Binding of 32P-oligo to PNA-Sepharose [4]: 45%
- Tm, Medium Salt (5′-AAG-AAG-AAA-A): 57.5 °C
- Tm, Medium Salt ((dA)5(dG)(dA)4): 72.0 °C
- Tm, High Salt ((dA)5(dG)(dA)4): 72.5 °C
- Tm, Low Salt ((dA)5(dG)(dA)4): 74.5 °C

Substance: Acr-TTT-TTT-TTT-T-Lys-NH2 [e]
- migration of 32P-end-labelled dA10 in polyacrylamide gel (32P-end-labelled dA10; native and denaturing gel conditions): retarded migration
- binding to the corresponding dA10 (32P-end-labelled dA10): very efficient binding
- migration of 32P-end-labelled dT10 in polyacrylamide gel (32P-end-labelled dT10): no retardation
- Tm, Medium Salt ((dA)10): 86.0 °C
- Tm, High Salt ((dA)10): ˜90 °C
- Tm, Low Salt ((dA)10): 84.5 °C

Substance: TTT-TTT-TTT-T-Lys-NH2 [H-T10-LysNH2]
- Tm of PNA/DNA complex [1]: > 70 °C
- % Binding of 32P-oligo to PNA-Sepharose [2]: 11%
- % Binding of 32P-oligo to PNA-Sepharose [3]: 11%
- binding to the corresponding dA10 (32P-end-labelled dA10): very efficient binding
- melting temperature of hybrid (RNA-A (poly rA)): > 90 C
- Tm, Medium Salt (5′-AAA-AGA-AGA-A): 46.0 °C
- % Binding of 32P-oligo to PNA-Sepharose [4]: 11%
- transcription of RNA ([5]; PNA bound to the non-transcribed strand (pT10KS)): not arrested
- transcription of RNA ([5]; PNA bound to the transcribed strand (pA10KS)): arrested at the PNA binding site
- A260 After Mixing (RNA-A; A260 before mixing 0.600): 0.389
- A260 After Mixing and Heating (RNA-A; [7]): 0.360
- A260 After Mixing (RNA-U; A260 before mixing 0.600): 0.538
- A260 After Mixing and Heating (RNA-U; [7]): 0.528
- A260 After Mixing (RNA-C; A260 before mixing 0.600): 0.540
- A260 After Mixing and Heating (RNA-C; [7]): 0.532
- A260 After Mixing (RNA-G; A260 before mixing 0.600): 0.514
- A260 After Mixing and Heating (RNA-G; [7]): 0.517
- % Binding of 32P-oligo to PNA-Sepharose [6]: 51%
- Tm, Medium Salt (5′-AAG-AAG-AAA-A): 47.0 °C
- Tm ((dA)10; Example 55): 73 °C and 73 °C °C
- Tm ((dA)10; Example 61): 73 °C °C
- Tm, Medium Salt ((dA)10): 72.5 °C
- Tm, High Salt ((dA)10): 73.0 °C
- Tm, Low Salt ((dA)10): 73.0 °C
- Tm, Medium Salt ((dA)5(dG)(dA)4): 59.0 °C
- Tm, High Salt ((dA)5(dG)(dA)4): 61.5 °C
- Tm, Low Salt ((dA)5(dG)(dA)4): 60.0 °C

Substance: TTC-TTC-TTT-T-Lys-NH2 [T8C2]
- % Binding of 32P-oligo to PNA-Sepharose [2]: 52%
- % Binding of 32P-oligo to PNA-Sepharose [3]: 14%
- % Binding of 32P-oligo to PNA-Sepharose [4]: 42%
- % Binding of 32P-oligo to PNA-Sepharose [6]: 15%
